Assay results published in PubChem BioAssay (NCI).
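All cell lines were grown in 96-well plates and treated with compound for 48 hours. TGI denotes the concentration required for complete inhibition of growth.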

Experiments:
Test in all cases: growth of human tumour cells (NCI), 48 h
RPMI-8226 leukemia = test system: RPMI-8226 leukemia
UACC-257 melanoma = test system: UACC-257 melanoma
SF-268 CNS = test system: SF-268 CNS
HOP-92 NSCLC = test system: HOP-92 NSCLC
OVCAR-5 ovarian = test system: OVCAR-5 ovarian
NCI-H522 lung = test system: NCI-H522 lung
COLO 205 colon = test system: COLO 205 colon
MDA-MB-435 = test system: MDA-MB-435
UO-31 renal = test system: UO-31 renal
SR leukemia = test system: SR leukemia
UACC-62 melanoma = test system: UACC-62 melanoma
SW-620 colon = test system: SW-620 colon
SNB-75 CNS = test system: SNB-75 CNS
KM12 colon = test system: KM12 colon
HS 578T breast = test system: HS 578T breast
HT29 colon = test system: HT29 colon
NCI-H226 lung = test system: NCI-H226 lung
MOLT-4 leukemia = test system: MOLT-4 leukemia
NCI/ADR-RES ovarian = test system: NCI/ADR-RES ovarian
ACHN renal = test system: ACHN renal
K-562 leukemia = test system: K-562 leukemia
SK-OV-3 ovarian = test system: SK-OV-3 ovarian
HL-60(TB) leukemia = test system: HL-60(TB) leukemia
M14 melanoma = test system: M14 melanoma
OVCAR-8 ovarian = test system: OVCAR-8 ovarian
SF-295 CNS = test system: SF-295 CNS
BT-549 breast = test system: BT-549 breast
PC-3 prostate = test system: PC-3 prostate
U251 CNS = test system: U251 CNS
CAKI-1 renal = test system: CAKI-1 renal
DU-145 prostate = test system: DU-145 prostate
SK-MEL-2 melanoma = test system: SK-MEL-2 melanoma
MCF7 breast = test system: MCF7 breast
SK-MEL-28 melanoma = test system: SK-MEL-28 melanoma
A549 NSCLC = test system: A549 NSCLC
SK-MEL-5 melanoma = test system: SK-MEL-5 melanoma
SNB-19 CNS = test system: SNB-19 CNS
786-0 renal = test system: 786-0 renal
SF-539 CNS = test system: SF-539 CNS
HCT-116 colon = test system: HCT-116 colon
SN12C renal = test system: SN12C renal
TK-10 renal = test system: TK-10 renal
EKVX NSCLC = test system: EKVX NSCLC
NCI-H460 lung = test system: NCI-H460 lung
LOX IMVI melanoma = test system: LOX IMVI melanoma
A498 renal = test system: A498 renal
NCI-H23 lung = test system: NCI-H23 lung
HCC-2998 colon = test system: HCC-2998 colon
CCRF-CEM leukemia = test system: CCRF-CEM leukemia
MDA-N = test system: MDA-N
HOP-62 NSCLC = test system: HOP-62 NSCLC
MALME-3M melanoma = test system: MALME-3M melanoma
HCT-15 colon = test system: HCT-15 colon
T-47D breast = test system: T-47D breast
IGROV1 ovarian = test system: IGROV1 ovarian
MDA-MB-231 breast = test system: MDA-MB-231 breast
OVCAR-4 ovarian = test system: OVCAR-4 ovarian
RXF 393 renal = test system: RXF 393 renal
OVCAR-3 ovarian = test system: OVCAR-3 ovarian

**Q.** What does the source list for Clc1ccc(-c2nc3ccc(C45CC6CC(CC(C6)C4)C5)cc3[nH]2)cc1?
**A.** TGI (RPMI-8226 leukemia): > 100 µM; TGI (UACC-257 melanoma): > 65.7 µM; TGI (SF-268 CNS): > 100 µM; TGI (HOP-92 NSCLC): > 95.3 µM; TGI (OVCAR-5 ovarian): > 100 µM; TGI (NCI-H522 lung): > 100 µM; TGI (COLO 205 colon): 24.3 µM; TGI (MDA-MB-435): > 100 µM; TGI (UO-31 renal): > 100 µM; TGI (SR leukemia): > 100 µM; TGI (UACC-62 melanoma): > 100 µM; TGI (SW-620 colon): > 100 µM; TGI (SNB-75 CNS): > 100 µM; TGI (KM12 colon): > 100 µM; TGI (HS 578T breast): > 100 µM; TGI (HT29 colon): > 100 µM; TGI (NCI-H226 lung): > 100 µM; TGI (MOLT-4 leukemia): > 100 µM; TGI (NCI/ADR-RES ovarian): > 100 µM; TGI (ACHN renal): > 100 µM; TGI (K-562 leukemia): 0.0221 µM; TGI (SK-OV-3 ovarian): > 100 µM; TGI (HL-60(TB) leukemia): > 100 µM; TGI (M14 melanoma): > 100 µM; TGI (OVCAR-8 ovarian): > 100 µM; TGI (SF-295 CNS): > 100 µM; TGI (BT-549 breast): 98.3 µM; TGI (PC-3 prostate): > 100 µM; TGI (U251 CNS): > 100 µM; TGI (CAKI-1 renal): > 100 µM; TGI (DU-145 prostate): > 100 µM; TGI (SK-MEL-2 melanoma): > 100 µM; TGI (MCF7 breast): > 100 µM; TGI (SK-MEL-28 melanoma): > 100 µM; TGI (A549 NSCLC): > 100 µM; TGI (SK-MEL-5 melanoma): 60.4 µM; TGI (SNB-19 CNS): > 100 µM; TGI (786-0 renal): > 100 µM; TGI (SF-539 CNS): > 100 µM; TGI (HCT-116 colon): > 100 µM; TGI (SN12C renal): > 100 µM; TGI (TK-10 renal): 98.9 µM; TGI (EKVX NSCLC): > 100 µM; TGI (NCI-H460 lung): > 90.5 µM; TGI (LOX IMVI melanoma): > 100 µM; TGI (A498 renal): > 100 µM; TGI (NCI-H23 lung): > 100 µM; TGI (HCC-2998 colon): > 77.7 µM; TGI (CCRF-CEM leukemia): > 100 µM; TGI (MDA-N): > 100 µM; TGI (HOP-62 NSCLC): > 77 µM; TGI (MALME-3M melanoma): > 100 µM; TGI (HCT-15 colon): > 72.8 µM; TGI (T-47D breast): > 100 µM; TGI (IGROV1 ovarian): > 100 µM; TGI (MDA-MB-231 breast): > 100 µM; TGI (OVCAR-4 ovarian): > 100 µM; TGI (RXF 393 renal): > 100 µM; TGI (OVCAR-3 ovarian): > 100 µM

**Q.** What does the source list for Nc1ncc(CN2CCOCC2)c(-c2ccccc2O)n1?
**A.** TGI (RPMI-8226 leukemia): > 100 µM; TGI (UACC-257 melanoma): > 100 µM; TGI (SF-268 CNS): > 100 µM; TGI (HOP-92 NSCLC): > 100 µM; TGI (OVCAR-5 ovarian): > 100 µM; TGI (COLO 205 colon): > 100 µM; TGI (MDA-MB-435): > 100 µM; TGI (UO-31 renal): > 100 µM; TGI (SR leukemia): > 100 µM; TGI (UACC-62 melanoma): > 100 µM; TGI (SW-620 colon): > 100 µM; TGI (SNB-75 CNS): > 100 µM; TGI (KM12 colon): > 100 µM; TGI (HS 578T breast): > 100 µM; TGI (HT29 colon): > 100 µM; TGI (NCI-H226 lung): > 100 µM; TGI (MOLT-4 leukemia): > 100 µM; TGI (NCI/ADR-RES ovarian): > 100 µM; TGI (ACHN renal): > 100 µM; TGI (K-562 leukemia): > 100 µM; TGI (SK-OV-3 ovarian): > 100 µM; TGI (HL-60(TB) leukemia): > 100 µM; TGI (M14 melanoma): > 100 µM; TGI (OVCAR-8 ovarian): > 100 µM; TGI (SF-295 CNS): > 100 µM; TGI (BT-549 breast): > 100 µM; TGI (PC-3 prostate): > 100 µM; TGI (U251 CNS): > 100 µM; TGI (CAKI-1 renal): > 100 µM; TGI (DU-145 prostate): > 100 µM; TGI (SK-MEL-2 melanoma): > 100 µM; TGI (MCF7 breast): > 100 µM; TGI (SK-MEL-28 melanoma): > 100 µM; TGI (A549 NSCLC): > 100 µM; TGI (SK-MEL-5 melanoma): > 100 µM; TGI (786-0 renal): > 100 µM; TGI (SF-539 CNS): > 100 µM; TGI (HCT-116 colon): > 100 µM; TGI (SN12C renal): > 100 µM; TGI (TK-10 renal): > 100 µM; TGI (EKVX NSCLC): > 100 µM; TGI (NCI-H460 lung): > 100 µM; TGI (LOX IMVI melanoma): > 100 µM; TGI (A498 renal): > 100 µM; TGI (NCI-H23 lung): > 100 µM; TGI (CCRF-CEM leukemia): > 100 µM; TGI (MDA-N): > 100 µM; TGI (HOP-62 NSCLC): > 100 µM; TGI (MALME-3M melanoma): > 100 µM; TGI (HCT-15 colon): > 100 µM; TGI (T-47D breast): > 100 µM; TGI (IGROV1 ovarian): > 100 µM; TGI (MDA-MB-231 breast): > 100 µM; TGI (OVCAR-4 ovarian): > 100 µM; TGI (RXF 393 renal): > 100 µM; TGI (OVCAR-3 ovarian): > 100 µM
